Columns and labels:
E. coli [1] = test: Selective inhibitory concentration of lignocellulosic compounds in LB-agar; type: cell-based, Escherichia coli; settings: 48 hours of growth at 37° C., lowest concentration tested which prevented colony formation
Protocol: The inhibitory concentrations of 14 lignocellulosic compounds in LB-agar (Table 2) were determined for two versions of the E. coli strain used to create the mgDNA libraries—a strain with a control pCC1FOS fosmid insert containing E. coli genomic DNA, and an untransformed strain. […] A range of concentrations for each lignocellulosic compound were tested, based on inhibitory concentrations for E. coli previously reported (1-3).

E. coli [2] = test: Kinetic growth / biomass yield analysis in liquid LB-chlor with inhibitor; type: cell-based, Escherichia coli; settings: for Improvement in biomass yield due to selected metagenomic insert: vs E. coli control, at the inhibitor concentration giving 90% reduction of wild type biomass yield, mgFurAc/2-furoic acid, mgSyrAld/syringaldehyde, mgMetCat/4-methylcatechol; for Inhibitor concentration resulting in 90% reduction in growth yield: wild-type/control E. coli, 24 hours of growth at 37° C.
Protocol: […] DNA library clones conferring tolerance to each of three inhibitors were chosen for further analysis of encoded functional parts from the selected inhibitor plates. For 4-methycatechol, 5 tolerant clones each were chosen from selected mgDNA libraries 1, 3, 4, and 5 (FIG. 2A). For 2-furoic acid, 6-7 tolerant clones each were chosen from selected mgDNA libraries 1, 3 and 4 (FIG. 2A). For syringaldehyde, 10 tolerant clones each were chosen from selected mgDNA libraries 4 and 5 (FIG. 2A). Each colony was grown to saturation (16-18 hours) at 37° C. with shaking in liquid LB medium containing 12.5 μg/mL-chloramphenicol (hereon referred to as LB-chlor). Saturated cultures were diluted 1:40 in fresh LB-chlor and grown to mid-log phase (1-2 hours) at 37° C. with shaking. Log-phase cultures were inoculated (1:40) into LB-chlor containing one of three concentrations of the relevant inhibitor (4-methylcatechol: 0.2, 0.6 and 1 g/L; 2-furoic acid: 0.8, 7.9, 15 g/L; syringaldehyde: 1.55, 1.775 and 2 g/L), with concentrations chosen to sparsely span the range of previously reported inhibitory concentrations of these compounds (J. Zaldivar, L. O. Ingram, Biotechnol Bioeng 66, 203 (1999); J. Zaldivar, A. Martinez, L. O. Ingram, Biotechnol Bioeng 65, 24 (Oct. 5, 1999); J. Zaldivar, A. Martinez, L. O. Ingram, Biotechnol Bioeng 68, 524 (Jun. 5, 2000)). Biomass yield after 24 hours of growth at 37° C. with shaking was determined by end-point turbidity measurements at 600 nm using a Versamax microplate reader (Molecular Devices).
Three mgDNA clones per inhibitor with the highest biomass differential when compared to the E. coli control were chosen for kinetic growth analysis. Growth kinetics were measured at 11 concentrations per inhibitor, evenly spanning the following concentration ranges: 0-1 g/L 4-methylcatechol, 0-1.5 g/L 2-furoic acid, and 0-3 g/L syringaldehyde. Kinetic measurements were done in triplicate for each mgDNA clone and E. coli control by 600 nm measurements every 5 minutes over 24 hours at 37° C. with shaking in a Versamax microplate reader.
To determine whether the observed tolerance in the selected clones was a result of functional parts encoded by mgDNA, fosmids from the 3 kinetically characterized mgDNA clones per inhibitor were extracted using the FosmidMAX DNA Purification Kit (catalog #FMAX046, Epicentre Biotechnologies). Purified fosmids were then retransformed into an electro-competent version of the same control E. coli strain using a standard electroporation protocol. 3 transformant colonies for each of the 3 kinetically characterized mgDNA clones per inhibitor were chosen for a repeat of the inhibitor tolerance kinetic growth analysis (see above). All of the retransformed fosmids for 4-methylcatechol and 2-furoic acid and 2 of the 3 retransformed fosmids for syringaldehyde recapitulated the improved inhibitor tolerance compared to the E. coli control seen for the original mgDNA selected clones. […] Kinetic growth plots for the mgDNA clone with the best improvements in biomass yield at these concentrations per inhibitor are shown in FIG. 4, over a range of inhibitor concentrations. These selected clones were from mgDNA library 3 for 2-furoic acid (mgFurAc), library 4 for syringaldehyde (mgSyrAld), and library 3 for 4-methylcatechol (mgMetCat).

[3] = system: oral and gut human-associated microbiome isolates; test: Antibiotic resistance profiling of human-associated microbiome isolates; type: cell-based, bacteria isolated from human sputum and fecal samples; settings: for Microbiome isolates resistant, on average: 1102 oral and gut isolates, antibiotic 20 mg/L in LB
Protocol: Three sputum samples (oral microbiomes) and two fecal samples (gut microbiomes) were collected from three healthy volunteers at three different sampling times (day 1, 140 and 141), and fresh samples were plated on Luria broth (LB) agar. […]. Cultures were incubated for 16 hours at 37° C. and growth was assayed by absorption at 600 nm.

Compound	Inhibitory Concentration (E. coli [1]) [g/L]	also measured
O=C(O)c1ccco1 [2-Furoic acid]	0.80	Improvement in biomass yield due to selected metagenomic insert (E. coli [2]): 6.9 fold; Inhibitor concentration resulting in 90% reduction in growth yield (E. coli [2]): 1.05 g/L
O=C(O)c1ccc(O)cc1 [4-hydrobenzoic acid]	7.90	–
O=Cc1ccc(O)cc1 [4-hydroxy-benzaldhehyde]	1.25	–
CC(=O)O [Acetic Acid]	5.00	–
CCO [Ethanol]	55.00	–
O=CO [Formic acid]	1.15	–
O=Cc1ccco1 [Furfural]	2.95	–
Oc1ccc(O)cc1 [Hydroquinone]	1.85	–
CC(=O)CCC(=O)O [Levulinic acid]	3.00	–
Cc1ccc(O)c(O)c1 [Methylcatechol, 4-methylcatechol]	0.20	Improvement in biomass yield due to selected metagenomic insert (E. coli [2]): 6.0 fold; Inhibitor concentration resulting in 90% reduction in growth yield (E. coli [2]): 0.33 g/L
COc1cc(C=O)cc(OC)c1O [Syringaldehyde]	1.55	Improvement in biomass yield due to selected metagenomic insert (E. coli [2]): 5.7 fold; Inhibitor concentration resulting in 90% reduction in growth yield (E. coli [2]): 1.33 g/L
COc1cc(C(=O)O)cc(OC)c1O [Syringic acid]	9.55	–
COc1cc(C(=O)O)ccc1O [Vanillic acid]	8.08	–
COc1cc(C=O)ccc1O [Vanillin]	1.50	–
CC1(C)S[C@@H]2[C@H](NC(=O)C(C(=O)O)c3ccccc3)C(=O)N2[C@H]1C(=O)O (some centres unmarked) [carbenicillin]	–	Microbiome isolates resistant, on average [3]: 39%
O=C(N[C@H](CO)[C@H](O)c1ccc([N+](=O)[O-])cc1)C(Cl)Cl [chloramphenicol]	–	Microbiome isolates resistant, on average [3]: 7%; Susceptibility of gut microbiome isolates ([3]; gut isolates from all sampling times, 20 mg/L): almost completely susceptible; O3 day 1 isolates resistant ([3]; oral microbiome O3, day 1, 20 mg/L): 87%
O=C(O)c1cn(C2CC2)c2cc(N3CCNCC3)c(F)cc2c1=O [ciprofloxacin]	–	Microbiome isolates resistant, on average [3]: 26%
C[C@H]1COc2c(N3CCN(C)CC3)c(F)cc3c(=O)c(C(=O)O)cn1c23 [levofloxacin]	–	Microbiome isolates resistant, on average [3]: 22%
